In patent publication US9249115B2, “N,N1 substituted piperazines having combined antiaggregant, anticoagulant and vasodilatory activity, and method for producing same” (Vertex Closed Joint Stock Company, priority 2011, dated 2016):

Legend:
[1] = tested on: Thrombocyte aggregation induced by arachidonic acid; experiment: Thrombocyte aggregation induced by arachidonic acid; type: cell-based, human; conditions: arachidonic acid 0.2 mmol
Description: (§1) The study of antiaggregant and anticoagulant properties of N,N′-substituted piperazines on the sample of donor human blood. The blood was collected by donor ulnar vein punction with dry sharp needle without syringe. The administration of drugs that influence on thrombocyte function was cancelled in 7÷10 days before the experiment.
(§2) In graduated plastic centrifuge tube 1 ml of 3.8% basic trisodium citrate solution with pH=7.4 was placed. The ulnar vein was punctuated, the freely effluent blood was collected up to 10 ml mark, the mixture was instantly stirred to prevent air bubbles appearance. The collected and stabilized blood was split in two 5 ml portions in two tubes.
(§3) To obtain thrombocyte enriched plasm the stabilized blood was spinned at 1000 rpm (150 g) for 8 min at room temperature. The repeated spinning of the blood at 3200 rpm (2300 g) for 20 min at 22° C. yielded thrombocyte depleted plasm.
The study of antiaggregant properties of N,N′-substituted piperazines with arachidonic acid (CHRONO-LOG, USA) as an inductor: to 450 l of thrombocyte plasm 50 l of N,N′-substituted piperazine solution was added, the mixture was incubated in the cuvette of CHRONO-LOG aggregometer for 15 min at 36° C. The concentration of arachidonic acid in the sample was 0.2 mmol, the concentrations of N,N′-substituted piperazines and comparison substance (aspirin) were 4÷5 mmol/L.
It was shown that N,N′-substituted piperazines have pronounced aspirin-like activity by inhibiting thrombocyte aggregation induced by arachidonic acid (table 5).

[2] = tested on: experimental photothrombosis; experiment: Experimental photothrombosis model, arterial blood velocity; type: in vivo, Wistar male rats
Description: The studies were done on Wistar male rats with mass of 230±30 g (laboratory animals nursery “Rappolovo”, RAMS). The animals were kept with unlimited food (standard ration for laboratory rats K-120 by <<Inform-korm>>, Russia) and water allowance. […]
Thrombosis modeling: the drugs were introduced into left femoral vein, in 50 min afterwards 1 ml of Bengal rose A photosensitizer (Acros Organics, USA) solution was introduced with dose of 17 mg/kg [Boselli 2007, Petrischev 2009]. Then the incision of internal surface of animal right thigh about 2 cm in length was made. The section of the femoral vein about 5 mm in length was released from surrounding tissues and separated from neurovascular bundle. Beneath this section of the vein the black non-transparent plastic strip 3 mm in width was laid to screen off the vein and surrounding tissues from radiation. The irradiation was done using diode laser <<DPSS-laser>> (Diode Pumped Solid State Laser, South Korea) with 532 nm wavelength and 60 mW power. The area of irradiation was 1 mm^2, exposing time was 40 min. The blood flow in femoral artery was measured by high frequency Doppler ultrasonography method (<<Minimax-Doppler-K>> apparatus, frequency of sensor was 20 MHz). The blood velocity alteration due to irradiation was measured (Table 9).

[3] = tested on: Ristocetin-induced thrombocyte aggregation; experiment: Ristocetin-induced thrombocyte aggregation, donor human thrombocyte enriched plasm; type: cell-based; conditions: ristocetin inductor; for MA (60 c), %: amplitude at 60 s
Description: as §1, §2, §3
(§4) The study of anticoagulant activity was done within 2 h after thrombocyte enriched plasm obtaining. The plasm was normalized to achieve thrombocyte concentration of 200-250×10^9/L by addition of thrombocyte-free plasm. The concentration of thrombocytes was measured on SOLAR AR 2110 analyzer.
(§5) Antiaggregant properties of N,N′-substituted piperazines were evaluated by their influence on thrombocyte aggregation in tests with ADP-, collagen- and ristocetin-induced aggregation. To dissolve N,N′-substituted piperazines and to dilute reagents Tris-HCl-buffer with pH=7.4 was used.
(§6) As the general characteristic of thrombocyte aggregation activity the maximum amplitude (MA) of aggregation was taken on. That is the peak value of transmittance coefficient of the sample after aggregation agent introduction expressed in % relative to the transmittance of thrombocyte-free plasm. The response was registered on ascending linear segment of aggregation curve for 16 s.
(§7) The measurements were done using 4-channel CHRONO-LOG 490-4D analyzer (CHRONO-LOG, USA). The temperature in the cell was 37° C., the spinning speed of magnetic stirrer was 1200 rpm.
(§8) In a cuvette 0.5 ml of N,N′-substituted piperazine solution was placed, then 0.4 ml of normalized thrombocyte plasm was added. The mixture was stirred and incubated at 37° C. for 5 min. The cuvette was placed in aggregometer, then 0.05 ml of aggregation inductor solution was added (ADP or collagen or ristocetin). Thrombocyte aggregation was measured for 3 min.
To study ristocetin-induced thrombocyte aggregation CHRONO-PAR RISTOCETIN reagent (CHRONO-LOG, USA) was diluted with buffer solution until ristocetin concentration reached 12 mg/ml. Thrombocyte aggregation amplitude was measured in 60 s after the beginning of the reaction.

[4] = tested on: ADP-induced thrombocyte aggregation; experiment: ADP-induced thrombocyte aggregation, donor human thrombocyte enriched plasm; type: cell-based; conditions: ADP inductor; for MA, %: human thrombocyte plasm
Description: as §1, §2, §3, §4, §5, §6, §7, §8
ADP-induced reversible thrombocyte aggregation test utilized CHRONO-PAR ADP reagent (CHRONO-LOG, USA) with 10 mol concentration. Primary (reversible) thrombocyte aggregation was evaluated by the response on addition of ADP threshold dose (ADP concentration is 1 mol) to plasm.

[5] = tested on: Collagen-induced thrombocyte aggregation; experiment: Collagen-induced thrombocyte aggregation, donor human thrombocyte enriched plasm; type: cell-based; conditions: collagen inductor; for MA, %: human thrombocyte plasm
Description: as §1, §2, §3, §4, §5, §6, §7, §8
In collagen-induced thrombocyte aggregation test CHRONO-PAR COLLAGEN reagent (CHRONO-LOG, USA) was diluted with buffer solution until collagen concentration reached 10 µg/ml.

[6] = Homo sapiens, 0.5 mmol/L, read-out: (MA0-MAx): MA0 * 100%
[7] = Homo sapiens, 1.25 mmol/L, read-out: (MA0-MAx): MA0 * 100%

SMILES: CC(=O)Oc1ccccc1C(=O)O [Acetylsalicylic acid, reference compound]
- MA ([1]; 5 mmol/L): 3
- Max. rate for 16 sec ([1]; 5 mmol/L): 5
- inhibition at 5000 µM ([1]; Homo sapiens, 5 mmol/L): 100%

SMILES: COc1ccc(CN2CCN(CC(O)CS(=O)(=O)[O-])CC2)c(OC)c1OC.[Na+] (centres unmarked) [Example 3, 3-(1-(2,3,4-trimethoxybenzyl)piperazine-4-yl)-2-hydroxy-1-propanesulfonic acid sodium salt]
- V, cm/s (arterial blood velocity) ([2]; 0.01 mmol/kg, 0 min of irradiation): 7.1 ± 3.2 cm/s
- V, cm/s (arterial blood velocity) ([2]; 0.01 mmol/kg, 10 min of irradiation): 7.00 ± 2.4 cm/s
- V, cm/s (arterial blood velocity) ([2]; 0.01 mmol/kg, 20 min of irradiation): 7.5 ± 2.2 cm/s
- V, cm/s (arterial blood velocity) ([2]; 0.01 mmol/kg, 30 min of irradiation): 6.4 ± 1.9 cm/s
- V, cm/s (arterial blood velocity) ([2]; 0.01 mmol/kg, 40 min of irradiation): 6.6 ± 1.5 cm/s
- V, cm/s (arterial blood velocity) ([2]; 0.025 mmol/kg, 0 min of irradiation): 8.5 ± 1.7 cm/s
- V, cm/s (arterial blood velocity) ([2]; 0.025 mmol/kg, 10 min of irradiation): 8.4 ± 1.2 cm/s
- V, cm/s (arterial blood velocity) ([2]; 0.025 mmol/kg, 20 min of irradiation): 8.4 ± 3.0 cm/s
- V, cm/s (arterial blood velocity) ([2]; 0.025 mmol/kg, 30 min of irradiation): 8.9 ± 1.6 cm/s
- V, cm/s (arterial blood velocity) ([2]; 0.025 mmol/kg, 40 min of irradiation): 8.5 ± 1.2 cm/s
- (MAx-MA0): MA0 * 100% ([3]; 0.5 mmol/L): 6.1%
- MA (60 c), % ([3]; 0.5 mmol/L): 63.0 ± 6.1%
- (MAx-MA0): MA0 * 100% (Ozagrel: (MA0-MAx): MA0 * 100%) ([3]; 1.25 mmol/L): 7.5%
- MA (60 c), % ([3]; 1.25 mmol/L): 62.1 ± 8.9%
- (MAx-MA0): MA0 * 100% (Ozagrel: (MA0-MAx): MA0 * 100%) ([3]; 2.5 mmol/L): 24.0%
- MA (60 c), % ([3]; 2.5 mmol/L): 51.0 ± 7.2%
- (MAx-MA0): MA0 * 100% (Ozagrel: (MA0-MAx): MA0 * 100%) ([3]; 5.0 mmol/L): 77.5%
- MA (60 c), % ([3]; 5.0 mmol/L): 25.1 ± 3.2%

SMILES: COc1ccc(CN2CCN(C(=N)N)CC2)c(OC)c1OC [Example 7, 4-(2,3,4-trimethoxybenzyl)piperazine-1-carboximidamide monohydrate]
- MA ([1]; 4.5 mmol/L): 72
- Max. rate for 16 sec ([1]; 4.5 mmol/L): 49
- inhibition at 4500 µM ([1]; Homo sapiens, 4.5 mmol/L): 35%

SMILES: Cl.N=C(N)N1CCN(S(=O)(=O)c2cc(Cl)c(Cl)cc2Cl)CC1 [Example 13, 4-(2,4,5-trichlorophenylsulfonyl)piperazine-1-carboximidamide hydrochloride]
- MA, % ([4]; 0.2 mmol/L): 14.0 ± 3.9%
- MA, % ([4]; 0.5 mmol/L): 10.3 ± 1.3%
- MA, % ([4]; 1.25 mmol/L): 4.7 ± 2.1%
- MA, % ([4]; 2.50 mmol/L): 1.4 ± 0.2%
- inhibition at 200 µM ([4]; Homo sapiens, 0.2 mmol/L, read-out: (MA0-MAx): MA0 * 100%): 10.8%
- inhibition at 500 µM [4, 6]: 34.4%
- inhibition at 1250 µM [4, 7]: 70.1%
- inhibition at 2500 µM ([4]; Homo sapiens, 2.50 mmol/L, read-out: (MA0-MAx): MA0 * 100%): 91.1%
- MA, % ([5]; 0.5 mmol/L): 72.1 ± 6.3%
- MA, % ([5]; 1.25 mmol/L): 62.0 ± 9.8%
- MA, % ([5]; 2.5 mmol/L): 55.0 ± 9.2%
- MA, % ([5]; 5.0 mmol/L): 48.7 ± 7.1%
- inhibition at 500 µM [5, 6]: 7.2%
- inhibition at 1250 µM [5, 7]: 20.2%
- inhibition at 2500 µM ([5]; Homo sapiens, 2.5 mmol/L, read-out: (MA0-MAx): MA0 * 100%): 29.2%
- inhibition at 5000 µM ([5]; Homo sapiens, 5.0 mmol/L, read-out: (MA0-MAx): MA0 * 100%): 37.3%
- MA ([1]; 4.0 mmol/L): 2
- Max. rate for 16 sec ([1]; 4.0 mmol/L): 1
- inhibition at 4000 µM ([1]; Homo sapiens, 4.0 mmol/L): 100%
- (MAx-MA0): MA0 * 100% ([3]; 0.2 mmol/L): 1.8%
- MA (60 c), % ([3]; 0.2 mmol/L): 60.1 ± 8.1%
- (MAx-MA0): MA0 * 100% ([3]; 0.5 mmol/L): 22.5%
- MA (60 c), % ([3]; 0.5 mmol/L): 48.2 ± 7.5%
- (MAx-MA0): MA0 * 100% (Ozagrel: (MA0-MAx): MA0 * 100%) ([3]; 1.25 mmol/L): 30.9%
- MA (60 c), % ([3]; 1.25 mmol/L): 43.0 ± 4.8%
- (MAx-MA0): MA0 * 100% (Ozagrel: (MA0-MAx): MA0 * 100%) ([3]; 2.5 mmol/L): 43.4%
- MA (60 c), % ([3]; 2.5 mmol/L): 35.2 ± 7.6%
- (MAx-MA0): MA0 * 100% (Ozagrel: (MA0-MAx): MA0 * 100%) ([3]; 5.0 mmol/L): 48.4%
- MA (60 c), % ([3]; 5.0 mmol/L): 32.1 ± 5.5%
